The text below walks through data of patent US9221826B2, “Pyrrolopyridazine JAK3 inhibitors and their use for the treatment of inflammatory and autoimmune diseases” (Bristol-Myers Squibb Company, priority 2011, dated 2015).

pIC50: −log10 of the molar value.

Type in all cases: biochemical
In one test the target is T1, JAK3 enzyme (Homo sapiens, UniProt P52333).
T1 sequence (P52333 1-1124): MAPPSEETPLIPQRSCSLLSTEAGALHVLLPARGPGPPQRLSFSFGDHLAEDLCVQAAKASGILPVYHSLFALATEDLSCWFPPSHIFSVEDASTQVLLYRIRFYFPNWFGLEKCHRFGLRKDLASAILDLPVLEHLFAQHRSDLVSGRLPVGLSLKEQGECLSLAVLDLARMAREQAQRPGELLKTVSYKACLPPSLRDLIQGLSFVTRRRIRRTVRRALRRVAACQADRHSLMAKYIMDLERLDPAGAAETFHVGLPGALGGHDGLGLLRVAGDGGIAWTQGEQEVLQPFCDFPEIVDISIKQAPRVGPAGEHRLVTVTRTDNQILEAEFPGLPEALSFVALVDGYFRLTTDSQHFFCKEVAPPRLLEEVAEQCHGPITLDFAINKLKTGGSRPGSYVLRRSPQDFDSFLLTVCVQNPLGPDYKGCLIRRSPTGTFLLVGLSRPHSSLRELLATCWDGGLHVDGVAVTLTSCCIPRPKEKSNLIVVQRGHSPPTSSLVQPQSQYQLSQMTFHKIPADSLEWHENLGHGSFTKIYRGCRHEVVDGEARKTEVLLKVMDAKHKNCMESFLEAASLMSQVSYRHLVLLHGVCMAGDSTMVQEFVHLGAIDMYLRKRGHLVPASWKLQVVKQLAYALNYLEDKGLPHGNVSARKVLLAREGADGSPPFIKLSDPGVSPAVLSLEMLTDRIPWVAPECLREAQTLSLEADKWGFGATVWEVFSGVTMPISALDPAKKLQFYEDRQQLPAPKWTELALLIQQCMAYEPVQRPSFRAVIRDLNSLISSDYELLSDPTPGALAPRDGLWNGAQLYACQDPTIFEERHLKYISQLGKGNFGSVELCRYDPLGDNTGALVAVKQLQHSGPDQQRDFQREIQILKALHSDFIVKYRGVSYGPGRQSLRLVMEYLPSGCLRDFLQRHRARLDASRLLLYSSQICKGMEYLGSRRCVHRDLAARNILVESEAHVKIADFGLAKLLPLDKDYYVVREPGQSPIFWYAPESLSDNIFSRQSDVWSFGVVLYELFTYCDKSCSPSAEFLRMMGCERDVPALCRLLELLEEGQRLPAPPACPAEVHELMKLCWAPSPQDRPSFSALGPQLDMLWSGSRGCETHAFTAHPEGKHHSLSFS
Kind of test: JAK3 Kinase Assay Protocol (Filter). To be noted: 33P γ-ATP, 8 μM ATP, CSKtide substrate, read-out: LLE_JAK3_FB (IC50). As to the method:
Kinase reactions consisted of 5 ng of JAK3 enzyme, 30 uM CSKtide substrate, 0.2 μCi ^33P γ-ATP, 8 μM ATP in 30 μl kinase buffer (50 mM Hepes, pH 8.0, 10 mM MgCl2, 1 mM EGTA, 2 mM DTT). Reactions were incubated for 30 minutes at room temperature and stopped by the addition of cold trichloroacetic acid (TCA) to a final concentration of 15%. TCA precipitates were collected onto 384 well phosphocellulose filters (Millipore) using a Platemate to transfer the reaction mixture, washed on an EMBLA plate washer and the filters were quantitated using a TopCount 384-well liquid scintillation counter. […] Compounds were dissolved at 10 mM in dimethylsulfoxide (DMSO) and evaluated at six concentrations, each in triplicate. The final concentration of DMSO in the assay equaled 2%. IC50 values were derived by non-linear regression analysis.

Another test concerns the target T2, GST-JAK3 enzyme (Homo sapiens, UniProt P52333).
T2 sequence (P52333 1-1124): T1 sequence (P52333 1-1124)
Nature of the test: JAK3 Kinase Assay Protocol (Caliper). To be noted: Caliper LabChip assay, ATP 8 μM, fluoresceinated peptide; read-out: LLE_JAK3_CAL (IC50). The procedure: The assay reactions were performed in U-bottom 384-well plates. […] The reaction was initiated by the combination of GST-JAK3 enzyme with substrates and test compounds. The reactions were incubated at room temperature for 3 hours and terminated by adding 60 μl of 35 mM EDTA to each sample. Each reaction mixture was analyzed on the Caliper LabChip 3000 (Caliper, Hopkinton, Mass.) by electrophoretic separation of the fluorescent substrate and phosphorylated product. […] Compounds were dissolved at 10 mM in dimethylsulfoxide (DMSO) and evaluated at eleven concentrations. IC50 values were derived by non-linear regression analysis.

For another test, the target named is GST-JAK1 enzyme (Homo sapiens, UniProt P23458). Kind of test: JAK1 Kinase Assay Protocol. Particulars: Caliper LabChip assay, ATP 100 μM, fluoresceinated peptide; read-out: LLE_JAK1 (IC50). The procedure: The assay reactions were performed in U-bottom 384-well plates. The final assay volume was 30 μl prepared from 15 μl additions of enzyme and substrates (fluoresceinated peptide and ATP) and test compounds in assay buffer (20 mM HEPES pH 7.4, 10 mM MgCl2, 25 mM beta-glycerol phosphate, 0.015% Brij35 and 4 mM DTT). The reaction was initiated by the combination of GST-JAK1 enzyme with substrates and test compounds. The reactions were incubated at room temperature for 3 hours and terminated by adding 60 μl of 35 mM EDTA to each sample. Each reaction mixture was analyzed on the Caliper LabChip 3000 (Caliper, Hopkinton, Mass.) by electrophoretic separation of the fluorescent substrate and phosphorylated product. […] The final concentration of reagents in the assays was: ATP, 100 μM; fluoresceinated peptide, 1.5 μM; GST-JAK1, 12.5 nM; and DMSO, 1.6%. […] Compounds were dissolved at 10 mM in dimethylsulfoxide (DMSO) and evaluated at eleven concentrations. IC50 values were derived by non-linear regression analysis.
Sequence of GST-JAK1 enzyme (P23458 whole entry): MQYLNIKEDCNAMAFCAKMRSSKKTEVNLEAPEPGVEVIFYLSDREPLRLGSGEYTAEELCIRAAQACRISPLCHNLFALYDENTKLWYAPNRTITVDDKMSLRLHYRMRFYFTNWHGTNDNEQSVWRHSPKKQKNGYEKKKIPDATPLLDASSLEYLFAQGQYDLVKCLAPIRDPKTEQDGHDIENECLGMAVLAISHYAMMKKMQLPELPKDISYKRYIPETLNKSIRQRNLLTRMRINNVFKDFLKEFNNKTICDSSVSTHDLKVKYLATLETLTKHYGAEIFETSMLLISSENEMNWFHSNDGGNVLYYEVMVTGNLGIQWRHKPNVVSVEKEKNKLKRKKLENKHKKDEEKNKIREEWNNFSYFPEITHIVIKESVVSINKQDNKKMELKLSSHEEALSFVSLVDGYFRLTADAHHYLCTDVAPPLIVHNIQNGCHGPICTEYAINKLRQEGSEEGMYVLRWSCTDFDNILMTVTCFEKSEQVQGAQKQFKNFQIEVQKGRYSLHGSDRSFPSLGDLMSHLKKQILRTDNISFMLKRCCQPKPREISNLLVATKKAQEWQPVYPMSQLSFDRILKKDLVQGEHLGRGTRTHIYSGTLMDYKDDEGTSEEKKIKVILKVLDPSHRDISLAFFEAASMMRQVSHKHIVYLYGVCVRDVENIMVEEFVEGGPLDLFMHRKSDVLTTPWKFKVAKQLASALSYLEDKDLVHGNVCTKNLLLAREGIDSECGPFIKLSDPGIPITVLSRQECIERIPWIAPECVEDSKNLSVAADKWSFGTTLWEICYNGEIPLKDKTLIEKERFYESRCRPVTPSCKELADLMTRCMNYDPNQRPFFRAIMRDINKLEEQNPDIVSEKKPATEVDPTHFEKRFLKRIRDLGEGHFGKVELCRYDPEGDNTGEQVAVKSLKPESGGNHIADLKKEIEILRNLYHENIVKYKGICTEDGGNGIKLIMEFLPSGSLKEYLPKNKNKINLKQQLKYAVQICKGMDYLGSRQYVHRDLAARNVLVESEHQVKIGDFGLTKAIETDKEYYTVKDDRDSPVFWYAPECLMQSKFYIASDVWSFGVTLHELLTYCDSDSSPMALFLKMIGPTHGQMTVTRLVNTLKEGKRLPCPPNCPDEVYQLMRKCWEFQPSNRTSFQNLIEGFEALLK

As to `CC1CCN(c2cc3c(N[C@H](C)C(C)(C)F)c(C(N)=O)cnn3c2)C1=O` (mixture of isomers) [Example 134], the pIC50 is 8.06 at JAK3 enzyme, 8.10 on GST-JAK3 enzyme and 7.40 on GST-JAK1 enzyme.

`CC(Nc1c(C(N)=O)cnn2cc(-c3ccncc3)cc12)c1cc(F)ccc1F` (racemic) [Example 181, (+/−)-4-((1-(2,5-difluorophenyl)ethyl)amino)-6-(4-pyridinyl)pyrrolo[1,2-b]pyridazine-3-carboxamide]: the pIC50 on JAK3 enzyme was 7.31; on GST-JAK3 enzyme it was 7.02; on GST-JAK1 enzyme, 6.97.

Consider `C[C@@H](Nc1c(C(N)=O)cnn2cc(-c3cccc(C(O)CO)c3)cc12)C1CC1` (mixture of isomers) [Example 187, (R)-4-(1-cyclopropylethylamino)-6-(3-(1,2-dihydroxyethyl)phenyl)pyrrolo[1,2-b]-pyridazine-3-carboxamide], for which the pIC50 was 9.00 on JAK3 enzyme, 8.89 at GST-JAK3 enzyme and 8.52 on GST-JAK1 enzyme.

Consider `CC(Nc1c(C(N)=O)cnn2cc(-c3ccccc3)cc12)C(C)(C)C(N)=O` (racemic) [Example 193, (+/−)-4-(4-amino-3,3-dimethyl-4-oxobutan-2-ylamino)-6-phenylpyrrolo[1,2-b]-pyridazine-3-carboxamide], for which the pIC50 was 8.74 on JAK3 enzyme and 8.57 on GST-JAK1 enzyme.

Take `COc1ccc(-c2cc3c(N[C@H](C)C(O)C4CC4)c(C(N)=O)cnn3c2)cn1` (single isomer, unassigned; isomer a) [Example 210]: the pIC50 at JAK3 enzyme is 9.30; at GST-JAK3 enzyme it was 9.10; on GST-JAK1 enzyme, 8.44.

For the compound `C[C@@H](Nc1c(C(N)=O)cnn2cc(N3CCCC3=O)cc12)C(C)(C)C` [Example 2], the pIC50 on JAK3 enzyme is 9.05; at GST-JAK3 enzyme, 8.43; at GST-JAK1 enzyme, 7.37.

In the case of `C[C@@H](Nc1c(C(N)=O)cnn2cc(-n3ccccc3=O)cc12)C(C)(C)C` [Example 5], the pIC50 on JAK3 enzyme was 7.32; at GST-JAK3 enzyme, 7.62; at GST-JAK1 enzyme it was 6.71.

On to `CCOC(=O)Nc1cc2c(N[C@H](C)C(C)(C)C)c(C(N)=O)cnn2c1` [Example 9], for which the pIC50 is 9.70 at JAK3 enzyme, 9.15 at GST-JAK3 enzyme and 8.15 at GST-JAK1 enzyme.

As to `C[C@@H](Nc1c(C(N)=O)cnn2cc(N3CCCCS3(=O)=O)cc12)C(C)(C)C` [Example 17], the pIC50 at JAK3 enzyme is 7.67; at GST-JAK3 enzyme, 7.65; at GST-JAK1 enzyme, 6.85.

As to `CC(C)[C@H]1COC(=O)N1c1cc2c(N[C@H](C)C(C)(C)C)c(C(N)=O)cnn2c1` [Example 18], the pIC50 is 6.96 on JAK3 enzyme, 6.98 on GST-JAK3 enzyme and 6.24 at GST-JAK1 enzyme.

`C[C@@H](Nc1c(C(N)=O)cnn2cc(N3CCOC3=O)cc12)C(C)(C)C` [Example 22]: the pIC50 at JAK3 enzyme is 9.15; on GST-JAK3 enzyme, 8.55; on GST-JAK1 enzyme, 7.47.

With `C[C@@H](Nc1c(C(N)=O)cnn2cc(N3CCN(C)C3=O)cc12)C(C)(C)C` [Example 25], the pIC50 on JAK3 enzyme was 8.23; on GST-JAK3 enzyme, 8.33; at GST-JAK1 enzyme, 7.07.

As for `C[C@@H](Nc1c(C(N)=O)cnn2cc(N3CCNC3=O)cc12)C(C)(C)C` [Example 29], the pIC50 is 8.92 on JAK3 enzyme, 8.28 at GST-JAK3 enzyme and 7.34 at GST-JAK1 enzyme.

With `C[C@@H](Nc1c(C(N)=O)cnn2cc(-c3ccc(F)cc3)cc12)C(C)(C)F` [Example 37], the results for the pIC50 on JAK3 enzyme, at GST-JAK3 enzyme and at GST-JAK1 enzyme were 7.73, 9.22 and 8.42, respectively.

In the case of `C[C@@H](Nc1c(C(N)=O)cnn2cc(-c3ccn[nH]3)cc12)C(C)(C)F` [Example 43], the pIC50 on JAK3 enzyme is 8.92; on GST-JAK3 enzyme it was 8.60; at GST-JAK1 enzyme, 8.06.

With `C[C@@H](Nc1c(C(N)=O)cnn2cc(-c3cccc(C#N)c3)cc12)C(C)(C)F` [Example 53, (R)-6-(3-cyanophenyl)-4-(3-fluoro-3-methylbutan-2-ylamino)pyrrolo[1,2-b]pyridazine-3-carboxamide], the pIC50 at JAK3 enzyme was 9.05; on GST-JAK3 enzyme, 8.85; on GST-JAK1 enzyme it was 8.28.

Turning to `C[C@@H](N)c1cccc(-c2cc3c(N[C@H](C)C(C)(C)F)c(C(N)=O)cnn3c2)c1` [Example 62], the pIC50 at JAK3 enzyme was 9.15; at GST-JAK3 enzyme it was 8.74; at GST-JAK1 enzyme it was 8.40.

As to `C[C@@H](Nc1c(C(N)=O)cnn2cc(-c3cccc(CN)c3)cc12)C(C)(C)F` [Example 68, 6-(3-(aminomethyl)phenyl)-4-(((1R)-2-fluoro-1,2-dimethylpropyl)amino) pyrrolo[1,2-b]pyridazine-3-carboxamide], the pIC50 on JAK3 enzyme was 9.15; on GST-JAK3 enzyme, 9.00.

`NC(=O)c1cnn2cc(-c3ccccc3)cc2c1N[C@H](C(N)=O)c1ccccc1` [Example 125]: the pIC50 on JAK3 enzyme was 7.73; at GST-JAK3 enzyme, 7.18; on GST-JAK1 enzyme it was 6.59.

For the compound `CC(C)Nc1c(C(N)=O)cnn2cc(-c3ccc4c(c3)OCO4)cc12` [Example 149], at GST-JAK3 enzyme, the pIC50 is 7.62.

For the compound `COc1ccc(-c2cc3c(N[C@H](C)C(C)(C)c4nc(C(N)=O)co4)c(C(N)=O)cnn3c2)cc1` [Example 219], the pIC50 is 8.92 on GST-JAK3 enzyme and 9.22 on GST-JAK1 enzyme.

Regarding `C[C@@H](Nc1c(C(N)=O)cnn2cc(-c3ccc(C#N)cc3)cc12)C(C)(C)c1nc(C(N)=O)co1` [Example 222], the pIC50 on GST-JAK3 enzyme was 9.05; on GST-JAK1 enzyme, 9.40.

For `CC[C@@H](c1nc(C(N)=O)co1)[C@@H](C)Nc1c(C(N)=O)cnn2cc(-c3ccc(OC)nc3)cc12` [Example 224, 2-((2R,3R)-2-((3-carbamoyl-6-(6-methoxypyridin-3-yl)pyrrolo[1,2-b]pyridazin-4-yl)amino)pentan-3-yl)oxazole-4-carboxamide], the values for the pIC50 at GST-JAK3 enzyme and at GST-JAK1 enzyme were 9.52 and 9.30, respectively.

As to `C[C@@H](O)[C@@H](COP(=O)(O)O)Nc1c(C(N)=O)cnn2cc(-c3ccccc3)cc12` [Example 240, (2R,3R)-2-((3-carbamoyl-6-phenylpyrrolo[1,2-b]pyridazin-4-yl)amino)-3-hydroxybutyl dihydrogen phosphate, disodium], the results for the pIC50 at GST-JAK3 enzyme and on GST-JAK1 enzyme were 6.06 and 5.66, respectively.
